The source of these data is PubChem BioAssay (NCI).

Where “and” joins values, the source holds several entries; their conditions need not be identical. Equal values may be shown once.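 Five concentrations, 48 hours, 96-well plates. The concentration for 50% growth inhibition is given as GI50. TGI denotes the concentration required for complete inhibition of growth.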 Bounds are passed on as bounds.

Some test systems named below: CAKI-1 renal; COLO 205 colon; HS 578T breast; LOX IMVI melanoma; SF-295 CNS; SK-OV-3 ovarian; SN12C renal; SNB-19 CNS; SNB-75 CNS; U251 CNS.
Holding throughout (assay): inhibition of tumour cell growth, NCI panel, 48 h

Regarding `CC[C@H](C)c1occ2c(O)c(C(=O)O)c(=O)cc-2c1C`, the TGI was over 100 µM in the assay with CAKI-1 renal; 36.8 µM with COLO 205 colon; over 100 µM with HS 578T breast; 32.8 µM in the assay on LOX IMVI melanoma; 99.3 µM with SF-295 CNS; 63.7 µM in the assay on SK-OV-3 ovarian. The TGI is 81.4 µM with SN12C renal, over 100 µM with SNB-19 CNS, over 100 µM in the assay on SNB-75 CNS and 74.6 µM in the assay on U251 CNS.
On to `CCCCCCN(CCCCCC)C(=N)c1ccnc2ccccc12`, for which the GI50 was 3.18 µM with CAKI-1 renal; 1.45 µM in the assay with COLO 205 colon; 12 µM with HS 578T breast; 2.17 µM with LOX IMVI melanoma; 1.39 µM in the assay with SF-295 CNS; 12.3 µM in the assay with SK-OV-3 ovarian. Also, the GI50 with SN12C renal is 7 µM; in the assay with SNB-19 CNS it was 11 µM; in the assay with SNB-75 CNS it was 4.68 µM; in the assay on U251 CNS it was 3.31 µM. The TGI in the assay with CAKI-1 renal turned out to be 15 µM; with COLO 205 colon, 2.97 µM; with HS 578T breast it was 47.1 µM; with LOX IMVI melanoma, 6.33 µM; with SF-295 CNS it was 13.4 µM; in the assay on SK-OV-3 ovarian it was 24.7 µM. For the same molecule, the TGI turned out to be 21.6 µM with SN12C renal, 25.7 µM in the assay with SNB-19 CNS, 17.3 µM in the assay with SNB-75 CNS and 10.9 µM with U251 CNS.
For the molecule `COc1cccc(-c2nn(-c3ccccc3)cc2-c2ccnc(NCCNS(=O)(=O)c3ccc(C(F)(F)F)cc3)c2)c1`, the GI50 in the assay with CAKI-1 renal was 3.64 µM; with COLO 205 colon, 1.87 µM; in the assay on HS 578T breast it was 4.07 µM; in the assay with LOX IMVI melanoma, 1.84 µM; in the assay with SF-295 CNS, 2.91 µM; in the assay with SK-OV-3 ovarian, 3 µM. Moreover, the GI50 is 2.27 µM in the assay on SN12C renal, 4.62 µM in the assay on SNB-19 CNS, 3.18 µM in the assay on SNB-75 CNS and 3.54 µM in the assay on U251 CNS. Further, the TGI is over 100 µM in the assay with CAKI-1 renal; 3.57 µM with COLO 205 colon; over 100 µM in the assay on HS 578T breast; 3.78 µM in the assay on LOX IMVI melanoma; 8.67 µM in the assay with SF-295 CNS; 11.1 µM in the assay on SK-OV-3 ovarian. The TGI is 5.39 µM in the assay on SN12C renal, over 100 µM in the assay with SNB-19 CNS, 37.1 µM with SNB-75 CNS and 13.9 µM in the assay with U251 CNS.
As to `COc1ccc(C(=S)c2cc(OC)c(OC)c(OC)c2)cc1OC(=O)CCl`, the GI50 in the assay with CAKI-1 renal is 0.0449 µM; in the assay with COLO 205 colon, 1.3 µM; in the assay on HS 578T breast it was 0.023 µM; in the assay with LOX IMVI melanoma it was 0.0102 µM; in the assay on SF-295 CNS, 0.0356 µM; in the assay on SK-OV-3 ovarian it was 0.0684 µM. Moreover, the GI50 in the assay with SN12C renal is 0.0241 µM; in the assay with SNB-19 CNS, under 0.0207 µM; in the assay on SNB-75 CNS, under 0.0114 µM; in the assay on U251 CNS, 0.0341 µM. Moreover, the TGI in the assay on CAKI-1 renal was 52.1 µM; with COLO 205 colon, 17 µM; in the assay with HS 578T breast it was over 100 µM; in the assay with LOX IMVI melanoma, over 100 µM; with SF-295 CNS, over 100 µM; in the assay with SK-OV-3 ovarian, over 100 µM. The TGI in the assay on SN12C renal, in the assay with SNB-19 CNS, in the assay with SNB-75 CNS and with U251 CNS was over 100 µM each time.
Regarding `O=C(OC(C(=O)O)C(OC(=O)c1ccccc1)C(=O)O)c1ccccc1` (stereo not given) (tested in a mixture with another compound), the TGI with CAKI-1 renal was > 100 µM and 52.2 µM; with COLO 205 colon it was > 100 µM and 16.6 µM; in the assay with HS 578T breast, 64.8 µM; with LOX IMVI melanoma, > 100 µM and 44.6 µM; in the assay with SF-295 CNS, over 100 µM; in the assay with SK-OV-3 ovarian, over 100 µM. For the same molecule, the TGI was over 100 µM in the assay on SN12C renal; over 100 µM in the assay on SNB-19 CNS; > 100 µM and 56 µM in the assay on SNB-75 CNS; over 100 µM with U251 CNS.
Regarding `CCN(Cc1ccc(F)cc1)c1ccc(CO)c(Cl)c1`, the GI50 is 0.487 µM with CAKI-1 renal; 1.35 µM in the assay with COLO 205 colon; 17.8 µM with HS 578T breast; 7.76 µM in the assay with LOX IMVI melanoma; 0.714 µM with SF-295 CNS; 3.86 µM in the assay with SK-OV-3 ovarian. Moreover, the GI50 in the assay on SN12C renal is 12.1 µM; in the assay on SNB-19 CNS, 19.6 µM; in the assay on SNB-75 CNS, 4.58 µM; in the assay on U251 CNS it was 0.654 µM. Also, the TGI in the assay with CAKI-1 renal was 8.79 µM; in the assay with COLO 205 colon it was 3.77 µM; in the assay on HS 578T breast, over 66.2 µM; with LOX IMVI melanoma, 20.7 µM; in the assay with SF-295 CNS, 14 µM; in the assay with SK-OV-3 ovarian, 25.2 µM. Also, the TGI was 33.4 µM with SN12C renal, over 59.8 µM in the assay on SNB-19 CNS, 39.6 µM in the assay on SNB-75 CNS and 15.1 µM in the assay with U251 CNS.
For the molecule `COc1cc(N2CCC(N3CCN(C)CC3)CC2)ccc1Nc1ncc(Cl)c(Nc2ccccc2P(C)(C)=O)n1`, the GI50 was 1.99 µM in the assay with CAKI-1 renal; 0.381 µM with COLO 205 colon; 2.46 µM in the assay on HS 578T breast; 2.8 µM with LOX IMVI melanoma; 2.85 µM with SF-295 CNS; 0.992 µM in the assay with SK-OV-3 ovarian. Moreover, the GI50 was 1.03 µM in the assay on SN12C renal, 3.09 µM with SNB-19 CNS, 1.66 µM in the assay on SNB-75 CNS and 3.79 µM in the assay with U251 CNS. Moreover, the TGI in the assay with CAKI-1 renal was 9.58 µM; in the assay with COLO 205 colon it was 2.08 µM; with HS 578T breast it was 24.1 µM; with SF-295 CNS it was over 100 µM; in the assay with SK-OV-3 ovarian it was 5 µM; with SN12C renal, over 100 µM. Also, the values for the TGI with SNB-19 CNS, with SNB-75 CNS and in the assay with U251 CNS were over 100 µM, 4.83 µM and over 100 µM, respectively.
Take `Cc1ccc(-c2csc(N(C(=O)N3CCN(c4cc5c(cc4F)c(=O)c(C(=O)O)cn5C4CC4)CC3)c3ccccc3)n2)cc1`: the GI50 in the assay with CAKI-1 renal is 0.373 µM; in the assay on HS 578T breast it was 0.428 µM; with LOX IMVI melanoma, 0.305 µM; in the assay with SF-295 CNS, 0.303 µM; in the assay on SK-OV-3 ovarian it was 0.252 µM; in the assay on SNB-19 CNS it was 0.383 µM. Further, the GI50 with SNB-75 CNS is 0.357 µM; in the assay on U251 CNS, 0.368 µM. Also, the TGI is over 100 µM in the assay on CAKI-1 renal; over 100 µM with HS 578T breast; over 100 µM with LOX IMVI melanoma; 1.86 µM in the assay with SF-295 CNS; 0.787 µM in the assay with SK-OV-3 ovarian; over 60 µM in the assay with SNB-19 CNS. Further, the TGI in the assay on SNB-75 CNS amounted to 4.17 µM; in the assay on U251 CNS, 6.73 µM.
